Laboratory results published in patent US20070049564A1 (Wyeth, priority 2005, published 2007).
Converted amounts (≈) assume the structure as drawn. Where two headings read alike, the source gives them in different places.

Columns and labels:
[1] = system: E. coli GC 2232; assay: MIC, broth microdilution; conditions: Escherichia coli, GC2232, E. coli GC 2232
[2] = system: S. pneumoniae+ GC 4465; assay: MIC, broth microdilution; conditions: Streptococcus pneumoniae, S. pneumoniae+ GC 4465
[3] = system: E. coli GC 4559; assay: MIC, broth microdilution; conditions: Escherichia coli, GC4559, E. coli GC 4559
[4] = system: S. aureus GC 6335; assay: MIC, broth microdilution; conditions: Staphylococcus aureus, GC6335, S. aureus GC 6335
[5] = system: E. faecalis GC 4555; assay: MIC, broth microdilution; conditions: Enterococcus faecalis, GC4555, E. faecalis GC 4555
[6] = system: P. aeruginosa GC 2214; assay: MIC, broth microdilution; conditions: Pseudomonas aeruginosa, GC2214, P. aeruginosa GC 2214
[7] = system: E. coli GC 2234; assay: MIC, broth microdilution; conditions: Escherichia coli, GC2234, E. coli GC 2234
[8] = system: E. coli GC 2236; assay: MIC, broth microdilution; conditions: Escherichia coli, GC2236, E. coli GC 2236
[9] = system: E. coli GC 2272; assay: MIC, broth microdilution; conditions: Escherichia coli, GC2272, E. coli GC 2272
Protocol: (§1) Antimicrobial susceptibility testing. The in vitro activities of the antibiotics are determined by the broth microdilution method as recommended by the National Committee for Clinical Laboratory Standards (NCCLS) (1). Mueller-Hinton II broth (MHBII)(BBL Cockeysville, Md.) is the medium employed in the testing procedures. Microtiter plates containing serial dilutions of each antimicrobial agent are inoculated with each organism to yield the appropriate density (10^5 CFU/ml) in a 100 μl final volume. The plates are incubated for 18-22 hours at 35° C. in ambient air.
(§2) Representative compounds were first incubated in mouse serum for an hour prior to the in vitro testing against a panel of selected gram-positive and gram-negative bacteria strains. All compounds were also pre-incubated in water for an hour prior to testing as control. Representative compounds of Formula I were incubated in human serum prior to MIC determination.

[10] = system: Staph. aureus Smith; assay: In vivo activity (oral, iv; ED50) against Staph. aureus Smith in mice
Protocol: Representative examples of compounds of Formula I were tested for the oral efficacy using S. aureus Smith in mice.

[11] = system: E. coli GC 2271; assay: MIC, broth microdilution; conditions: Escherichia coli, GC2271, E. coli GC 2271
[12] = system: S. pneumoniae* GC 4465; assay: MIC, broth microdilution; conditions: Streptococcus pneumoniae, S. pneumoniae* GC 4465
[13] = system: S. epidermidis GC 4935; assay: MIC, broth microdilution; conditions: Staphylococcus epidermidis, GC4935, S. epidermidis GC 4935
[14] = system: S. agalactiae GC 4564; assay: MIC, broth microdilution; conditions: Streptococcus agalactiae, GC4564, S. agalactiae GC 4564
[15] = system: E. faecalis GC 2265; assay: MIC, broth microdilution; conditions: Enterococcus faecalis, GC2265, E. faecalis GC 2265
[16] = system: S. aureus GC 1131; assay: MIC, broth microdilution; conditions: Staphylococcus aureus, GC1131, S. aureus GC 1131
[17] = system: S. pyogenes GC 4563; assay: MIC, broth microdilution; conditions: Streptococcus pyogenes, GC4563, S. pyogenes GC 4563
[18] = system: E. coli GC 2203; assay: MIC, broth microdilution; conditions: Escherichia coli, GC2203, E. coli GC 2203
[19] = system: E. faecalis GC 2267; assay: MIC, broth microdilution; conditions: Enterococcus faecalis, GC2267, E. faecalis GC 2267
[20] = system: E. coli GC 3226; assay: MIC, broth microdilution; conditions: Escherichia coli, GC3226, E. coli GC 3226
Protocol: as §1, §2

[21] = Staphylococcus aureus, in Mus musculus, po, read-out: ED50 Staph Smith SOD
[22] = iv, read-out: ED50 Staph Smith SIV

CCCCN(CC(=O)Nc1cc(N(C)C)c2c(c1O)C(=O)C1=C(O)[C@]3(O)C(=O)C(C(N)=O)=C(O)[C@@H](N(C)C)C3CC1C2)C(=O)OCOC(=O)c1ccc(C)cc1 (stereo partly drawn) [Example 3, ({[(2-{[(7S,10aS)-9-(aminocarbonyl)-4,7-bis(dimethylamino)-1,8,10a,11-tetrahydroxy-10,12-dioxo-5,5a,6,6a,7,10,10a,12-octahydrotetracen-2-yl]amino}-2-oxoethyl)(butyl)amino]carbonyl}oxy)methyl 4-methylbenzoate]
MIC ([1]; Mouse Serum pre-incubation): 2 µg/mL (≈ 2.57 µM)
MIC ([1]; Water pre-incubation): > 64 µg/mL
MIC ([2]; Mouse Serum pre-incubation): 1 µg/mL (≈ 1.29 µM)
MIC ([2]; Water pre-incubation): 2 µg/mL (≈ 2.57 µM)
MIC ([3]; Mouse Serum pre-incubation): 2 µg/mL (≈ 2.57 µM)
MIC ([3]; Water pre-incubation): > 64 µg/mL
MIC ([4]; Mouse Serum pre-incubation): 2 µg/mL (≈ 2.57 µM)
MIC ([4]; Water pre-incubation): 8 µg/mL (≈ 10.3 µM)
MIC ([5]; Mouse Serum pre-incubation): 1 µg/mL (≈ 1.29 µM)
MIC ([5]; Water pre-incubation): 8 µg/mL (≈ 10.3 µM)
MIC ([6]; Mouse Serum pre-incubation): 32 µg/mL (≈ 41.1 µM)
MIC ([6]; Water pre-incubation): > 64 µg/mL
MIC ([7]; Mouse Serum pre-incubation): 1 µg/mL (≈ 1.29 µM)
MIC ([7]; Water pre-incubation): > 64 µg/mL
MIC ([8]; Mouse Serum pre-incubation): 1 µg/mL (≈ 1.29 µM)
MIC ([8]; Water pre-incubation): > 64 µg/mL
MIC ([9]; Mouse Serum pre-incubation): 1 µg/mL (≈ 1.29 µM)
MIC ([9]; Water pre-incubation): > 64 µg/mL
ED50 [10, 21]: 16.1 mg/kg
ED50 [10, 22]: 0.59 mg/kg
MIC ([11]; Mouse Serum pre-incubation): 1 µg/mL (≈ 1.29 µM)
MIC ([11]; Water pre-incubation): > 64 µg/mL
MIC ([12]; Mouse Serum pre-incubation): 0.12 µg/mL (≈ 0.154 µM)
MIC ([12]; Water pre-incubation): 0.25 µg/mL (≈ 0.321 µM)
MIC ([13]; Mouse Serum pre-incubation): 4 µg/mL (≈ 5.14 µM)
MIC ([13]; Water pre-incubation): 8 µg/mL (≈ 10.3 µM)
MIC ([14]; Mouse Serum pre-incubation): 1 µg/mL (≈ 1.29 µM)
MIC ([14]; Water pre-incubation): 2 µg/mL (≈ 2.57 µM)
MIC ([15]; Mouse Serum pre-incubation): 2 µg/mL (≈ 2.57 µM)
MIC ([15]; Water pre-incubation): 32 µg/mL (≈ 41.1 µM)
MIC ([16]; Mouse Serum pre-incubation): 2 µg/mL (≈ 2.57 µM)
MIC ([16]; Water pre-incubation): 4 µg/mL (≈ 5.14 µM)
MIC ([17]; Mouse Serum pre-incubation): 0.12 µg/mL (≈ 0.154 µM)
MIC ([17]; Water pre-incubation): 0.25 µg/mL (≈ 0.321 µM)
MIC ([18]; Mouse Serum pre-incubation): 1 µg/mL (≈ 1.29 µM)
MIC ([18]; Water pre-incubation): > 64 µg/mL
MIC ([19]; Mouse Serum pre-incubation): 2 µg/mL (≈ 2.57 µM)
MIC ([19]; Water pre-incubation): 32 µg/mL (≈ 41.1 µM)
MIC ([20]; Mouse Serum pre-incubation): 2 µg/mL (≈ 2.57 µM)
MIC ([20]; Water pre-incubation): > 64 µg/mL

CCCCN(CC(=O)Nc1cc(N(C)C)c2c(c1O)C(=O)C1=C(O)[C@]3(O)C(=O)C(C(N)=O)=C(O)[C@@H](N(C)C)[C@@H]3C[C@@H]1C2)C(=O)OCOC(=O)c1ccc(F)cc1 [Example 4, ({[(2-{[(5aR,6aS,7S,10aS)-9-(aminocarbonyl)-4,7-bis(dimethylamino)-1,8,10a,11-tetrahydroxy-10,12-dioxo-5,5a,6,6a,7,10,10a,12-octahydrotetracen-2-yl]amino}-2-oxoethyl)(butyl)amino]carbonyl}oxy)methyl 4-fluorobenzoate]
MIC ([1]; Mouse Serum pre-incubation): 1 µg/mL (≈ 1.28 µM)
MIC ([1]; Water pre-incubation): 64 µg/mL (≈ 81.9 µM)
MIC ([2]; Mouse Serum pre-incubation): 2 µg/mL (≈ 2.56 µM)
MIC ([2]; Water pre-incubation): 4 µg/mL (≈ 5.12 µM)
MIC ([3]; Mouse Serum pre-incubation): 2 µg/mL (≈ 2.56 µM)
MIC ([3]; Water pre-incubation): > 64 µg/mL
MIC ([4]; Mouse Serum pre-incubation): 1 µg/mL (≈ 1.28 µM)
MIC ([4]; Water pre-incubation): 4 µg/mL (≈ 5.12 µM)
MIC ([5]; Mouse Serum pre-incubation): 1 µg/mL (≈ 1.28 µM)
MIC ([5]; Water pre-incubation): 8 µg/mL (≈ 10.2 µM)
MIC ([6]; Mouse Serum pre-incubation): 32 µg/mL (≈ 40.9 µM)
MIC ([6]; Water pre-incubation): > 64 µg/mL
MIC ([7]; Mouse Serum pre-incubation): 1 µg/mL (≈ 1.28 µM)
MIC ([7]; Water pre-incubation): 64 µg/mL (≈ 81.9 µM)
MIC ([8]; Mouse Serum pre-incubation): 1 µg/mL (≈ 1.28 µM)
MIC ([8]; Water pre-incubation): 64 µg/mL (≈ 81.9 µM)
MIC ([9]; Mouse Serum pre-incubation): 1 µg/mL (≈ 1.28 µM)
MIC ([9]; Water pre-incubation): 64 µg/mL (≈ 81.9 µM)
ED50 [10, 21]: 11.6 mg/kg
ED50 [10, 22]: 0.39 mg/kg
MIC ([11]; Mouse Serum pre-incubation): 0.5 µg/mL (≈ 0.64 µM)
MIC ([11]; Water pre-incubation): 64 µg/mL (≈ 81.9 µM)
MIC ([12]; Mouse Serum pre-incubation): < 0.06 µg/mL
MIC ([12]; Water pre-incubation): 0.12 µg/mL (≈ 0.153 µM)
MIC ([13]; Mouse Serum pre-incubation): 2 µg/mL (≈ 2.56 µM)
MIC ([13]; Water pre-incubation): 4 µg/mL (≈ 5.12 µM)
MIC ([14]; Mouse Serum pre-incubation): 0.25 µg/mL (≈ 0.32 µM)
MIC ([14]; Water pre-incubation): 0.5 µg/mL (≈ 0.64 µM)
MIC ([15]; Mouse Serum pre-incubation): 2 µg/mL (≈ 2.56 µM)
MIC ([15]; Water pre-incubation): 8 µg/mL (≈ 10.2 µM)
MIC ([16]; Mouse Serum pre-incubation): 1 µg/mL (≈ 1.28 µM)
MIC ([16]; Water pre-incubation): 4 µg/mL (≈ 5.12 µM)
MIC ([17]; Mouse Serum pre-incubation): 0.12 µg/mL (≈ 0.153 µM)
MIC ([17]; Water pre-incubation): 0.25 µg/mL (≈ 0.32 µM)
MIC ([18]; Mouse Serum pre-incubation): 1 µg/mL (≈ 1.28 µM)
MIC ([18]; Water pre-incubation): 64 µg/mL (≈ 81.9 µM)
MIC ([19]; Mouse Serum pre-incubation): 1 µg/mL (≈ 1.28 µM)
MIC ([19]; Water pre-incubation): 8 µg/mL (≈ 10.2 µM)
MIC ([20]; Mouse Serum pre-incubation): 2 µg/mL (≈ 2.56 µM)
MIC ([20]; Water pre-incubation): 64 µg/mL (≈ 81.9 µM)

CCCN(CC(=O)Nc1cc(N(C)C)c2c(c1O)C(=O)C1=C(O)[C@]3(O)C(=O)C(C(N)=O)=C(O)[C@@H](N(C)C)[C@@H]3C[C@@H]1C2)C(=O)OCOC(=O)c1ccc(C)cc1 [Example 5, ({[(2-{[(5aR,6aS,7S,10aS)-9-(aminocarbonyl)-4,7-bis(dimethylamino)-1,8,10a,11-tetrahydroxy-10,12-dioxo-5,5a,6,6a,7,10,10a,12-octahydrotetracen-2-yl]amino}-2-oxoethyl)(propyl)amino]carbonyl}oxy)methyl 4-methylbenzoate]
MIC ([1]; Mouse Serum pre-incubation): 2 µg/mL (≈ 2.62 µM)
MIC ([1]; Water pre-incubation): 32 µg/mL (≈ 41.9 µM)
MIC ([2]; Mouse Serum pre-incubation): 2 µg/mL (≈ 2.62 µM)
MIC ([2]; Water pre-incubation): 4 µg/mL (≈ 5.24 µM)
MIC ([3]; Mouse Serum pre-incubation): 2 µg/mL (≈ 2.62 µM)
MIC ([3]; Water pre-incubation): 32 µg/mL (≈ 41.9 µM)
MIC ([4]; Mouse Serum pre-incubation): 0.5 µg/mL (≈ 0.655 µM)
MIC ([4]; Water pre-incubation): 1 µg/mL (≈ 1.31 µM)
MIC ([5]; Mouse Serum pre-incubation): 1 µg/mL (≈ 1.31 µM)
MIC ([5]; Water pre-incubation): 4 µg/mL (≈ 5.24 µM)
MIC ([6]; Mouse Serum pre-incubation): 32 µg/mL (≈ 41.9 µM)
MIC ([6]; Water pre-incubation): > 64 µg/mL
MIC ([7]; Mouse Serum pre-incubation): 1 µg/mL (≈ 1.31 µM)
MIC ([7]; Water pre-incubation): 32 µg/mL (≈ 41.9 µM)
MIC ([8]; Mouse Serum pre-incubation): 2 µg/mL (≈ 2.62 µM)
MIC ([8]; Water pre-incubation): 16 µg/mL (≈ 20.9 µM)
MIC ([9]; Mouse Serum pre-incubation): 1 µg/mL (≈ 1.31 µM)
MIC ([9]; Water pre-incubation): 32 µg/mL (≈ 41.9 µM)
ED50 ([10]; Staphylococcus aureus, in Mus musculus, iv, read-out: ED50 SIV (Staph aureus Smith)): 0.5 mg/kg
ED50 ([10]; Staphylococcus aureus, in Mus musculus, po, read-out: ED50 SOD (Staph aureus Smith)): 8.51 mg/kg
ED50 [10, 21]: 8.51 mg/kg
ED50 [10, 22]: 0.5 mg/kg
MIC ([11]; Mouse Serum pre-incubation): 1 µg/mL (≈ 1.31 µM)
MIC ([11]; Water pre-incubation): 16 µg/mL (≈ 20.9 µM)
MIC ([12]; Mouse Serum pre-incubation): < 0.06 µg/mL
MIC ([12]; Water pre-incubation): 0.12 µg/mL (≈ 0.157 µM)
MIC ([13]; Mouse Serum pre-incubation): 1 µg/mL (≈ 1.31 µM)
MIC ([13]; Water pre-incubation): 2 µg/mL (≈ 2.62 µM)
MIC ([14]; Mouse Serum pre-incubation): 0.5 µg/mL (≈ 0.655 µM)
MIC ([14]; Water pre-incubation): 0.5 µg/mL (≈ 0.655 µM)
MIC ([15]; Mouse Serum pre-incubation): 2 µg/mL (≈ 2.62 µM)
MIC ([15]; Water pre-incubation): 4 µg/mL (≈ 5.24 µM)
MIC ([16]; Mouse Serum pre-incubation): 0.5 µg/mL (≈ 0.655 µM)
MIC ([16]; Water pre-incubation): 1 µg/mL (≈ 1.31 µM)
MIC ([17]; Mouse Serum pre-incubation): 0.12 µg/mL (≈ 0.157 µM)
MIC ([17]; Water pre-incubation): 0.25 µg/mL (≈ 0.327 µM)
MIC ([18]; Mouse Serum pre-incubation): 1 µg/mL (≈ 1.31 µM)
MIC ([18]; Water pre-incubation): 32 µg/mL (≈ 41.9 µM)
MIC ([19]; Mouse Serum pre-incubation): 2 µg/mL (≈ 2.62 µM)
MIC ([19]; Water pre-incubation): 4 µg/mL (≈ 5.24 µM)
MIC ([20]; Mouse Serum pre-incubation): 2 µg/mL (≈ 2.62 µM)
MIC ([20]; Water pre-incubation): 32 µg/mL (≈ 41.9 µM)
